Measurements from PubChem BioAssay AID330 (DTP/NCI, 2004).
Inconclusive results and toxic doses are left out. Rule for the calls: active = survival T/C of 150% or more; inactive = T/C below 125% in these data.

Tested on: P388 leukemia ip, CD2F1 mice, survival T/C
Assay: NCI In Vivo Anticancer Drug Screen. Data for tumor model P388 Leukemia (intraperitoneal) in CD2F1 (CDF1) mice
Settings: endpoint: median survival time, higher = longer survival
How it was run: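 Mice carrying the transplanted tumor received test compound or vehicle. Survival was recorded in each group, and the value is the treated-group measurement divided by that of the vehicle-treated control group.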

[1] = dose: 6.25 mg/kg/injection, schedule: Q01DX009 (ip), vehicle: saline with Tween-80
[2] = dose: 60.0 mg/kg/injection, schedule: Q01DX005 (ip), vehicle: saline with Tween-80
[3] = dose: 120.0 mg/kg/injection, schedule: Q01DX005 (ip), vehicle: saline with Tween-80
[4] = dose: 240.0 mg/kg/injection, schedule: Q01DX005 (ip), vehicle: saline with Tween-80
[5] = dose: 50.0 mg/kg/injection, schedule: Q01DX009 (ip), vehicle: Klucel (hydroxypropylcellulose) (HPC)
[6] = dose: 100.0 mg/kg/injection, schedule: Q01DX009 (ip), vehicle: Klucel (hydroxypropylcellulose) (HPC)
[7] = dose: 200.0 mg/kg/injection, schedule: Q01DX009 (ip), vehicle: Klucel (hydroxypropylcellulose) (HPC)
[8] = dose: 100.0 mg/kg/injection, schedule: Q04DX003 (ip), vehicle: saline
[9] = dose: 200.0 mg/kg/injection, schedule: Q04DX003 (ip), vehicle: saline
[10] = dose: 400.0 mg/kg/injection, schedule: Q04DX003 (ip), vehicle: saline
[11] = dose: 100.0 mg/kg/injection, schedule: Q01DX009 (ip), vehicle: saline with Tween-80
[12] = dose: 100.0 mg/kg/injection, schedule: Q04DX003 (ip), vehicle: saline with Tween-80
[13] = dose: 200.0 mg/kg/injection, schedule: Q04DX003 (ip), vehicle: saline with Tween-80
[14] = dose: 400.0 mg/kg/injection, schedule: Q04DX003 (ip), vehicle: saline with Tween-80

Measured: T/C

CCN(CC)CCNc1ccc(COC(=O)NC)c2sc3ccccc3c(=O)c12
inactive: dose: 1.56 mg/kg/injection, schedule: Q01DX009 (ip), vehicle: saline with Tween-80 116 % of control | dose: 3.12 mg/kg/injection, schedule: Q01DX009 (ip), vehicle: saline with Tween-80 122 % of control | [1] 119 % of control

C[n+]1ccc(Nc2ccc(NC(=O)c3ccc(Nc4cc[n+](C)c5ccc(N)cc45)cc3N)cc2)cc1
inactive: dose: 0.18 mg/kg/injection, schedule: Q01DX009 (ip), vehicle: saline with Tween-80 111 % of control | dose: 0.27 mg/kg/injection, schedule: Q01DX009 (ip), vehicle: saline with Tween-80 124 % of control | dose: 25.0 mg/kg/injection, schedule: Q01DX009 (ip), vehicle: saline with Tween-80 100 % of control
active: dose: 1.0 mg/kg/injection, schedule: Q01DX009 (ip), vehicle: saline with Tween-80 157 % of control | dose: 1.33 mg/kg/injection, schedule: Q01DX009 (ip), vehicle: saline with Tween-80 154 % of control | dose: 1.5 mg/kg/injection, schedule: Q01DX009 (ip), vehicle: saline with Tween-80 163 % of control | dose: 2.0 mg/kg/injection, schedule: Q01DX009 (ip), vehicle: saline with Tween-80 200 % of control | dose: 3.0 mg/kg/injection, schedule: Q01DX009 (ip), vehicle: saline with Tween-80 245 % of control | dose: 3.13 mg/kg/injection, schedule: Q01DX009 (ip), vehicle: saline with Tween-80 271 % of control | dose: 4.5 mg/kg/injection, schedule: Q01DX009 (ip), vehicle: saline with Tween-80 257 % of control | dose: 5.0 mg/kg/injection, schedule: Q04DX003 (ip), vehicle: saline with Tween-80 154 % of control | [1] 274 % of control | dose: 7.5 mg/kg/injection, schedule: Q04DX003 (ip), vehicle: saline with Tween-80 163 % of control | dose: 12.5 mg/kg/injection, schedule: Q01DX009 (ip), vehicle: saline with Tween-80 275 % of control

CNC(=O)c1ccccc1Sc1ccccc1C(=O)NC
inactive: dose: 100.0 mg/kg/injection, schedule: Q01DX001 (ip), vehicle: other 100 % of control | dose: 200.0 mg/kg/injection, schedule: Q01DX001 (ip), vehicle: other 101 % of control | dose: 400.0 mg/kg/injection, schedule: Q01DX001 (ip), vehicle: other 100 % of control

COc1ccc(C2Cc3cc(OC)c(OC)cc3C(c3ccccc3)N2)cc1OC (configuration not stated)
inactive: [2] 86 % of control | [3] 88 % of control | [4] 89 % of control

COc1cccc(/C=C2\CCc3ccccc3C2=O)c1OC
inactive: [5] 119 % of control | [6] 106 % of control | [7] 110 % of control

CCCC1(CCC)CCC2C3CCC4CC(O)CCC4(C)C3CCC2(C)N1O (configuration not stated)
inactive: dose: 100.0 mg/kg/injection, schedule: Q01DX001 (ip), vehicle: Klucel (hydroxypropylcellulose) (HPC) 92 % of control | dose: 200.0 mg/kg/injection, schedule: Q01DX001 (ip), vehicle: Klucel (hydroxypropylcellulose) (HPC) 89 % of control | dose: 400.0 mg/kg/injection, schedule: Q01DX001 (ip), vehicle: Klucel (hydroxypropylcellulose) (HPC) 91 % of control

N#CCCN(C(=S)Nc1ccc(F)cc1)N1CCCCCC1
inactive: [8] 100 % of control | [9] 107 % of control | [10] 98 % of control

CCC/C(=N\NC(N)=NC)c1ccc2c(c1)Cc1ccccc1-2
inactive: dose: 50.0 mg/kg/injection, schedule: Q04DX002 (ip), vehicle: saline with Tween-80 106 % of control | dose: 100.0 mg/kg/injection, schedule: Q04DX002 (ip), vehicle: saline with Tween-80 102 % of control | dose: 200.0 mg/kg/injection, schedule: Q04DX002 (ip), vehicle: saline with Tween-80 104 % of control

CC(C)=NOCCC#N
inactive: dose: 60.0 mg/kg/injection, schedule: Q01DX005 (ip), vehicle: saline 99 % of control | dose: 120.0 mg/kg/injection, schedule: Q01DX005 (ip), vehicle: saline 99 % of control | dose: 240.0 mg/kg/injection, schedule: Q01DX005 (ip), vehicle: saline 101 % of control

CN(C)C12CCCCCC1S(=O)(=O)C2 (configuration not stated)
inactive: dose: 50.0 mg/kg/injection, schedule: Q01DX009 (ip), vehicle: saline with Tween-80 94 % of control | [11] 94 % of control

CCCCN=C(c1ccc(O)cc1)c1ccc(OC)cc1O
inactive: [2] 108 % of control | [3] 92 % of control | [4] 99 % of control

C=CCc1cc2c(cc1Cc1ccc(OC)cc1)OCO2
inactive: dose: 50.0 mg/kg/injection, schedule: Q01DX005 (ip), vehicle: distilled water + alcohol 109 % of control | dose: 100.0 mg/kg/injection, schedule: Q01DX005 (ip), vehicle: distilled water + alcohol 104 % of control | dose: 200.0 mg/kg/injection, schedule: Q01DX005 (ip), vehicle: distilled water + alcohol 109 % of control

Cc1cc2c3ccccc3[nH]c(=O)n2n1
inactive: dose: 50.0 mg/kg/injection, schedule: Q04DX003 (ip), vehicle: saline 101 % of control | [11] 100 % of control | [12] 110 % of control | [8] 101 % of control | dose: 200.0 mg/kg/injection, schedule: Q01DX009 (ip), vehicle: saline with Tween-80 110 % of control | [13] 120 % of control | [9] 105 % of control | [14] 100 % of control | [10] 98 % of control

C1CCNCC1.O=C([CH-]C(=O)C(F)(F)F)c1ccc2c(c1)C(=O)c1ccccc1-2.O=C([CH-]C(=O)C(F)(F)F)c1ccc2c(c1)C(=O)c1ccccc1-2.O=C([CH-]C(=O)C(F)(F)F)c1ccc2c(c1)C(=O)c1ccccc1-2.O=C([CH-]C(=O)C(F)(F)F)c1ccc2c(c1)C(=O)c1ccccc1-2.[Eu+3]
inactive: dose: 12.5 mg/kg/injection, schedule: Q01DX009 (ip), vehicle: Klucel (hydroxypropylcellulose) (HPC) 112 % of control | dose: 25.0 mg/kg/injection, schedule: Q01DX009 (ip), vehicle: Klucel (hydroxypropylcellulose) (HPC) 111 % of control | [5] 110 % of control

CC(C)(C)[Si](C)(C)O[C@H]1C[C@@H](O[Si](C)(C)C(C)(C)C)C=C1S(=O)(=O)c1ccccc1
inactive: dose: 12.5 mg/kg/injection, schedule: Q01DX005 (ip), vehicle: Klucel (hydroxypropylcellulose) (HPC) 101 % of control | dose: 25.0 mg/kg/injection, schedule: Q01DX005 (ip), vehicle: Klucel (hydroxypropylcellulose) (HPC) 107 % of control | dose: 50.0 mg/kg/injection, schedule: Q01DX005 (ip), vehicle: Klucel (hydroxypropylcellulose) (HPC) 111 % of control

COc1ccc(B2OCCO2)cc1
inactive: dose: 50.0 mg/kg/injection, schedule: Q01DX005 (ip), vehicle: saline with Tween-80 100 % of control | dose: 100.0 mg/kg/injection, schedule: Q01DX005 (ip), vehicle: saline with Tween-80 97 % of control | dose: 200.0 mg/kg/injection, schedule: Q01DX005 (ip), vehicle: saline with Tween-80 101 % of control

CC(=O)C1C(=O)C(=O)N(c2ccccc2C)C1=O (configuration not stated)
inactive: [5] 105 % of control | [2] 103 % of control | [6] 107 % of control | [3] 100 % of control | [7] 110 % of control

CN(C)N=Nc1ccc(NC(N)=O)cc1
active: dose: 100.0 mg/kg/injection, schedule: Q04DX003 (ip), vehicle: saline + Tween-80 + alcohol 154 % of control

O=C(O)C(O)(c1ccccc1Cl)c1ccccc1Cl
inactive: [12] 105 % of control | [13] 110 % of control | [14] 109 % of control

O=C(O)CSCCCCCCSCC(=O)O
inactive: dose: 50.0 mg/kg/injection, schedule: Q01DX009 (ip), vehicle: saline 103 % of control | dose: 100.0 mg/kg/injection, schedule: Q01DX009 (ip), vehicle: saline 103 % of control | dose: 200.0 mg/kg/injection, schedule: Q01DX009 (ip), vehicle: saline 103 % of control

CC1(C)COC(=O)/C1=C1\SC(=S)NC1=O
inactive: [8] 103 % of control | [9] 92 % of control

CCC1=Cc2cc([N+](=O)[O-])cc(OC)c2OC12SCCN2C (configuration not stated)
inactive: [12] 100 % of control | [13] 103 % of control | [14] 103 % of control

O=C1C(CN2CCCCC2)=C(O)C(c2ccccc2)N1c1ccccc1 (configuration not stated)
inactive: [2] 96 % of control | [3] 95 % of control | [4] 97 % of control

COc1cc(N2C(N)=NC(N)=NC2(C)C)cc(OC)c1OC
inactive: dose: 6.25 mg/kg/injection, schedule: Q01DX009 (ip), vehicle: saline 100 % of control | dose: 12.5 mg/kg/injection, schedule: Q01DX009 (ip), vehicle: saline 95 % of control | dose: 25.0 mg/kg/injection, schedule: Q01DX009 (ip), vehicle: saline 90 % of control
